# Reference: patent US10945932B2, “Prebiotic oral care compositions containing carboxylic acids” (COLGATE-PALMOLIVE COMPANY, priority 2013, dated 2021)
# Like-named read-outs stand apart in the source and are kept apart here.
# Tests used:
# Prevotella intermedia [1] = experiment: Metabolic activity, Biolog phenotype microarray; assay type: cell-based; details: P intermedia
# Streptococcus sobrinus = experiment: Metabolic activity, Biolog phenotype microarray; assay type: cell-based; details: S sobrinus
# Capnocytophaga sputigena = experiment: Metabolic activity, Biolog phenotype microarray; assay type: cell-based; details: C sputigena
# Fusobacterium nucleatum [2] = experiment: Metabolic activity, Biolog phenotype microarray; assay type: cell-based; details: F nucleatum
# Actinomyces naeslundii [3] = experiment: Metabolic activity, Biolog phenotype microarray; assay type: cell-based; details: A naeslundii
# Streptococcus mitis = experiment: Metabolic activity, Biolog phenotype microarray; assay type: cell-based; details: S mitis
# Porphyromonas gingivalis [4] = experiment: Metabolic activity, Biolog phenotype microarray; assay type: cell-based; details: P gingivalis
# [5] = test system: Aggregatibacter actinomycetemcomitans; experiment: Metabolic activity, Biolog phenotype microarray; assay type: cell-based; details: A actinomycetemcomitans
# Streptococcus salivarius [6] = experiment: Metabolic activity, Biolog phenotype microarray; assay type: cell-based; details: S salivarius
# Streptococcus gordonii [7] = experiment: Metabolic activity, Biolog phenotype microarray; assay type: cell-based; details: S gordonii
# Tannerella forsythia [8] = experiment: Metabolic activity, Biolog phenotype microarray; assay type: cell-based; details: T forsythia
# Veillonella parvula [9] = experiment: Metabolic activity, Biolog phenotype microarray; assay type: cell-based; details: V parvula
# Streptococcus sanguinis = experiment: Metabolic activity, Biolog phenotype microarray; assay type: cell-based; details: S sanguinis
# Streptococcus mutans = experiment: Metabolic activity, Biolog phenotype microarray; assay type: cell-based; details: S mutans
# Actinomyces viscosus [10] = experiment: Metabolic activity, Biolog phenotype microarray; assay type: cell-based; details: A viscosus
# Actinomyces viscosus [11] = details: A viscosus, BHI
# Procedure: (§1) Late exponential growth phase liquid cultures were prepared by transferring the respective bacterium from blood agar plates to BHI and overnight incubation at 37° C. in an anaerobic atmosphere for A. viscosus, V. parvula, F. nucleatum, P. gingivalis, P. intermedia, T forsythia, A. naeslundii, and C. sputigena, and in a 5% CO2 environment for S. salivarius, S. sanguinis, S. mitis, A. actinomycetemcomitans, S. mutans, S. sobrinus and S. gordonii. Overnight cultures were transferred to BHI and adjusted to a concentration of 1×10^7 CFU/ml (colony forming units per ml) by measuring the optical density at 600 nm (OD600) (BioRad SmartSpec 3000). For each strain, 200 μl of the bacterial suspension was added to a 96-well plate containing 20 μl of the respective carboxylic acids. Final concentrations of the carboxylic acids were set to 5, 10, 20 and 25 μmol/ml. […] Plates were incubated as previously described.
# (§2) For each combination of bacterium/carboxylic acid, and for each of their respective controls (i.e. the particular bacterium in the nutritionally rich medium with no carboxylic acid), the optical density was measured at 630 nm (OD630) at 0 h, 24 h and 48 h (Thermo Scientific Multiskan Ascent). Additionally, the OD630 for combinations of bacterium/carboxylic acid grown in a 5% CO2 environment were also measured every hour between 0 h and 9 h.
# (§3) The experiment was carried out on three different days (thus providing 3 biological replicas) and on each day the experiment was carried out in quadruple (thus providing 4 technical replicas) for each combination of bacterium with carboxylic acid and for each control. For each day and for each combination, the average (mean) of the values obtained (as detailed above) for the four technical replicas was calculated to provide a single value for each combination on each day.
# [12] = test system: beneficial oral bacteria and pathogenic oral bacteria; experiment: Metabolic activity, prebiotic effect over the whole panel; assay type: cell-based; details: threshold value of 2
# Veillonella parvula [13] = details: V parvula, BHI
# Procedure: as §1, §2, §3
# Prevotella intermedia [14] = details: P intermedia, BHI
# Procedure: as §1, §2, §3
# Porphyromonas gingivalis [15] = details: P gingivalis, BHI
# Procedure: as §1, §2, §3
# Tannerella forsythia [16] = details: T forsythia, BHI
# Procedure: as §1, §2, §3
# Fusobacterium nucleatum [17] = details: F nucleatum, BHI
# Procedure: as §1, §2, §3
# Actinomyces naeslundii [18] = details: A naeslundii, BHI
# Procedure: as §1, §2, §3
# Streptococcus gordonii [19] = details: S gordonii, BHI
# Procedure: as §1, §2, §3
# Streptococcus salivarius [20] = details: S salivarius, BHI
# Procedure: as §1, §2, §3
structure (smiles),measurement,setting,value
"O=C(O)CCC(=O)O [Succinic acid, succinic acid]","metabolic activity, OD at 492 nm divided by OD of control (control = 1)",Prevotella intermedia [1]; 24 hrs,1.0677
same,"metabolic activity, OD at 492 nm divided by OD of control (control = 1)",Prevotella intermedia [1]; 48 hrs,1.1361
same,"metabolic activity, OD at 492 nm divided by OD of control (control = 1)",Streptococcus sobrinus; 24 hrs,0.8265
same,"metabolic activity, OD at 492 nm divided by OD of control (control = 1)",Streptococcus sobrinus; 48 hrs,0.8068
same,"metabolic activity, OD at 492 nm divided by OD of control (control = 1)",Capnocytophaga sputigena; 24 hrs,1.0400
same,"metabolic activity, OD at 492 nm divided by OD of control (control = 1)",Capnocytophaga sputigena; 48 hrs,1.0105
same,"metabolic activity, OD at 492 nm divided by OD of control (control = 1)",Fusobacterium nucleatum [2]; 24 hrs,0.8508
same,"metabolic activity, OD at 492 nm divided by OD of control (control = 1)",Fusobacterium nucleatum [2]; 48 hrs,0.8574
same,"metabolic activity, OD at 492 nm divided by OD of control (control = 1)",Actinomyces naeslundii [3]; 24 hrs,0.9767
same,"metabolic activity, OD at 492 nm divided by OD of control (control = 1)",Actinomyces naeslundii [3]; 48 hrs,0.9858
same,"metabolic activity, OD at 492 nm divided by OD of control (control = 1)",Streptococcus mitis; 24 hrs,0.9268
same,"metabolic activity, OD at 492 nm divided by OD of control (control = 1)",Streptococcus mitis; 48 hrs,0.8537
same,"metabolic activity, OD at 492 nm divided by OD of control (control = 1)",Porphyromonas gingivalis [4]; 24 hrs,0.8726
same,"metabolic activity, OD at 492 nm divided by OD of control (control = 1)",Porphyromonas gingivalis [4]; 48 hrs,0.9109
same,"metabolic activity, OD at 492 nm divided by OD of control (control = 1)",[5]; 24 hrs,1.1066
same,"metabolic activity, OD at 492 nm divided by OD of control (control = 1)",[5]; 48 hrs,1.2815
same,"metabolic activity, OD at 492 nm divided by OD of control (control = 1)",Streptococcus salivarius [6]; 24 hrs,0.9019
same,"metabolic activity, OD at 492 nm divided by OD of control (control = 1)",Streptococcus salivarius [6]; 48 hrs,0.8347
same,"metabolic activity, OD at 492 nm divided by OD of control (control = 1)",Streptococcus gordonii [7]; 24 hrs,0.7960
same,"metabolic activity, OD at 492 nm divided by OD of control (control = 1)",Streptococcus gordonii [7]; 48 hrs,0.8167
same,"metabolic activity, OD at 492 nm divided by OD of control (control = 1)",Tannerella forsythia [8]; 24 hrs,0.9307
same,"metabolic activity, OD at 492 nm divided by OD of control (control = 1)",Tannerella forsythia [8]; 48 hrs,0.9641
same,"metabolic activity, OD at 492 nm divided by OD of control (control = 1)",Veillonella parvula [9]; 24 hrs,2.8247
same,"metabolic activity, OD at 492 nm divided by OD of control (control = 1)",Veillonella parvula [9]; 48 hrs,2.2852
same,"metabolic activity, OD at 492 nm divided by OD of control (control = 1)",Streptococcus sanguinis; 24 hrs,0.9046
same,"metabolic activity, OD at 492 nm divided by OD of control (control = 1)",Streptococcus sanguinis; 48 hrs,0.8763
same,"metabolic activity, OD at 492 nm divided by OD of control (control = 1)",Streptococcus mutans; 24 hrs,0.8991
same,"metabolic activity, OD at 492 nm divided by OD of control (control = 1)",Streptococcus mutans; 48 hrs,0.8576
same,"metabolic activity, OD at 492 nm divided by OD of control (control = 1)",Actinomyces viscosus [10]; 24 hrs,0.9752
same,"metabolic activity, OD at 492 nm divided by OD of control (control = 1)",Actinomyces viscosus [10]; 48 hrs,1.0089
same,"extent of growth, maximal OD630 over 48 hr divided by maximal OD of control (control = 1)",Actinomyces viscosus [11]; 5 μmol/ml,0.5671
same,"extent of growth, maximal OD630 over 48 hr divided by maximal OD of control (control = 1)",Actinomyces viscosus [11]; 10 μmol/ml,0.3693
same,"extent of growth, maximal OD630 over 48 hr divided by maximal OD of control (control = 1)",Actinomyces viscosus [11]; 20 μmol/ml,0.1827
same,"extent of growth, maximal OD630 over 48 hr divided by maximal OD of control (control = 1)",Actinomyces viscosus [11]; 25 μmol/ml,0.1586
same,prebiotic effect (metabolic activity),[12]; 24 hrs,exhibited prebiotic effects
same,prebiotic effect (metabolic activity),[12]; 48 hrs,exhibited prebiotic effects
same,"extent of growth, maximal OD630 over 48 hr divided by maximal OD of control (control = 1)",Veillonella parvula [13]; 5 μmol/ml,1.1624
same,"extent of growth, maximal OD630 over 48 hr divided by maximal OD of control (control = 1)",Veillonella parvula [13]; 10 μmol/ml,1.1922
same,"extent of growth, maximal OD630 over 48 hr divided by maximal OD of control (control = 1)",Veillonella parvula [13]; 20 μmol/ml,1.4603
same,"extent of growth, maximal OD630 over 48 hr divided by maximal OD of control (control = 1)",Veillonella parvula [13]; 25 μmol/ml,1.3566
same,"extent of growth, maximal OD630 over 48 hr divided by maximal OD of control (control = 1)",Prevotella intermedia [14]; 5 μmol/ml,0.8288
same,"extent of growth, maximal OD630 over 48 hr divided by maximal OD of control (control = 1)",Prevotella intermedia [14]; 10 μmol/ml,0.4471
same,"extent of growth, maximal OD630 over 48 hr divided by maximal OD of control (control = 1)",Prevotella intermedia [14]; 20 μmol/ml,0.0944
same,"extent of growth, maximal OD630 over 48 hr divided by maximal OD of control (control = 1)",Prevotella intermedia [14]; 25 μmol/ml,0.0921
same,"extent of growth, maximal OD630 over 48 hr divided by maximal OD of control (control = 1)",Porphyromonas gingivalis [15]; 5 μmol/ml,1.0091
same,"extent of growth, maximal OD630 over 48 hr divided by maximal OD of control (control = 1)",Porphyromonas gingivalis [15]; 10 μmol/ml,0.8129
same,"extent of growth, maximal OD630 over 48 hr divided by maximal OD of control (control = 1)",Porphyromonas gingivalis [15]; 20 μmol/ml,0.4103
same,"extent of growth, maximal OD630 over 48 hr divided by maximal OD of control (control = 1)",Porphyromonas gingivalis [15]; 25 μmol/ml,0.4061
same,"extent of growth, maximal OD630 over 48 hr divided by maximal OD of control (control = 1)",Tannerella forsythia [16]; 5 μmol/ml,0.9040
same,"extent of growth, maximal OD630 over 48 hr divided by maximal OD of control (control = 1)",Tannerella forsythia [16]; 10 μmol/ml,0.7937
same,"extent of growth, maximal OD630 over 48 hr divided by maximal OD of control (control = 1)",Tannerella forsythia [16]; 20 μmol/ml,0.7975
same,"extent of growth, maximal OD630 over 48 hr divided by maximal OD of control (control = 1)",Tannerella forsythia [16]; 25 μmol/ml,0.8103
same,"extent of growth, maximal OD630 over 48 hr divided by maximal OD of control (control = 1)",Fusobacterium nucleatum [17]; 5 μmol/ml,0.9913
same,"extent of growth, maximal OD630 over 48 hr divided by maximal OD of control (control = 1)",Fusobacterium nucleatum [17]; 10 μmol/ml,1.0196
same,"extent of growth, maximal OD630 over 48 hr divided by maximal OD of control (control = 1)",Fusobacterium nucleatum [17]; 20 μmol/ml,0.2006
same,"extent of growth, maximal OD630 over 48 hr divided by maximal OD of control (control = 1)",Fusobacterium nucleatum [17]; 25 μmol/ml,0.1511
same,"extent of growth, maximal OD630 over 48 hr divided by maximal OD of control (control = 1)",Actinomyces naeslundii [18]; 5 μmol/ml,0.9975
same,"extent of growth, maximal OD630 over 48 hr divided by maximal OD of control (control = 1)",Actinomyces naeslundii [18]; 10 μmol/ml,0.5885
same,"extent of growth, maximal OD630 over 48 hr divided by maximal OD of control (control = 1)",Actinomyces naeslundii [18]; 20 μmol/ml,0.2228
same,"extent of growth, maximal OD630 over 48 hr divided by maximal OD of control (control = 1)",Actinomyces naeslundii [18]; 25 μmol/ml,0.1840
same,"extent of growth, maximal OD630 over 48 hr divided by maximal OD of control (control = 1)",Streptococcus gordonii [19]; 5 μmol/ml,0.8555
same,"extent of growth, maximal OD630 over 48 hr divided by maximal OD of control (control = 1)",Streptococcus gordonii [19]; 10 μmol/ml,0.7021
same,"extent of growth, maximal OD630 over 48 hr divided by maximal OD of control (control = 1)",Streptococcus gordonii [19]; 20 μmol/ml,0.2928
same,"extent of growth, maximal OD630 over 48 hr divided by maximal OD of control (control = 1)",Streptococcus gordonii [19]; 25 μmol/ml,0.1860
same,"extent of growth, maximal OD630 over 48 hr divided by maximal OD of control (control = 1)",Streptococcus salivarius [20]; 5 μmol/ml,1.0823
same,"extent of growth, maximal OD630 over 48 hr divided by maximal OD of control (control = 1)",Streptococcus salivarius [20]; 10 μmol/ml,0.8904
same,"extent of growth, maximal OD630 over 48 hr divided by maximal OD of control (control = 1)",Streptococcus salivarius [20]; 20 μmol/ml,0.2795
same,"extent of growth, maximal OD630 over 48 hr divided by maximal OD of control (control = 1)",Streptococcus salivarius [20]; 25 μmol/ml,0.2197
